Measurements published in patent publication US20230348358A1, “Serotonin Receptor Modulators” (Northeastern University, priority 2020, published 2023).
Entries after “also recorded” stand apart in the source; their conditions may differ. Like-named read-outs stand apart in the source and are kept apart here.

Tests used:
[1] = test system: C57BI/6J mice; experiment: d-Amphetamine (AMP)-elicited hyperlocomotion; assay type: in vivo, mouse; details: 5.6 mg/kg; listed as (2S)-5-FPT, HCl
[2] = Plasma and brain concentrations by LC-MS/MS after systemic administration; assay type: in vivo, mouse; details: for concentration at 30 min / concentration at 60 min / concentration at 90 min: 3.0 mg/kg subcutaneous, mean (SEM); for concentration at 30 min: 30 min after injection; for concentration at 60 min: 60 min after injection; for concentration at 90 min: 90 min after injection
Excerpt: (2S)-5-FPT is neurobehaviorally active after oral administration.

[3] = target: T1, 5HT2A receptors (Homo sapiens, UniProt P28223); experiment: biochemical; assay type: binding
T1 construct: host or cells: HEK293, transient
T1 sequence (P28223 whole entry): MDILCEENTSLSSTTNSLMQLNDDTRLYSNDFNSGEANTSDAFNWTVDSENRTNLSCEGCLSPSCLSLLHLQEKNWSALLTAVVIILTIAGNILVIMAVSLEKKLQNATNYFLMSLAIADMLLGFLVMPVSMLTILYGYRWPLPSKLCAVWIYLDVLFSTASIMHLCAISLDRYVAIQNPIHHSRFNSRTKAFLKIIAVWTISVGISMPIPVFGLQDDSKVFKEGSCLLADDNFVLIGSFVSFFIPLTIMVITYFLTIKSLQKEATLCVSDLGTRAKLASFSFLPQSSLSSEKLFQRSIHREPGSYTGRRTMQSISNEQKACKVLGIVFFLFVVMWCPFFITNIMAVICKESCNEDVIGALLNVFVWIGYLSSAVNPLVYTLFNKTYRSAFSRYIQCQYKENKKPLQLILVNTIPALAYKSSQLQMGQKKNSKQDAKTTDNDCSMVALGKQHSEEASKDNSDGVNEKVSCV

[4] = target: T2, 5HT2B receptors (Homo sapiens, UniProt P41595); experiment: Affinity at 5HT2B receptors; assay type: binding
T2 construct: host or cells: HEK293, transient
T2 sequence (P41595 whole entry): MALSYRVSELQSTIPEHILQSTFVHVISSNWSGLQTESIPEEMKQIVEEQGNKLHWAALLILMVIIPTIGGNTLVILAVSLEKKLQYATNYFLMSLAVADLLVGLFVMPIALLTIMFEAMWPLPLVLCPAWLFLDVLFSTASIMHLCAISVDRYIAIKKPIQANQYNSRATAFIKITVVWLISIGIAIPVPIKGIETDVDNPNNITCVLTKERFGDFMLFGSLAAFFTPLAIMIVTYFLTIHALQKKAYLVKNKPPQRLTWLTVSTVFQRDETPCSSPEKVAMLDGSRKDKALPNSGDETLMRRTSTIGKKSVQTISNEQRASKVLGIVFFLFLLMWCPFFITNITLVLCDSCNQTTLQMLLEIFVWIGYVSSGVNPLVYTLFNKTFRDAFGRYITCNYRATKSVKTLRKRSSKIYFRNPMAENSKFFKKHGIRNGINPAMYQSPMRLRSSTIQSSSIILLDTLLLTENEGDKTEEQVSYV

[5] = test system: C57BL/6J mice; experiment: DOI-elicited head-twitch response (HTR); assay type: in vivo, mouse
Excerpt: The 5-HT2A receptor is a predominant 5-HT receptor in the cortex, and serves important excitation modulation functions on glutamate pyramidal and GABA neurons.

[6] = target: 5HT7 (Homo sapiens, UniProt P34969); experiment: 5HT7 function, Gs-cAMP signaling (HEK293 cells); assay type: cell-based; design: ATCC CRL-1573 (cells); details: for Function at 5HT7: cAMP signaling, HCl
5HT7, sequence (P34969 whole entry): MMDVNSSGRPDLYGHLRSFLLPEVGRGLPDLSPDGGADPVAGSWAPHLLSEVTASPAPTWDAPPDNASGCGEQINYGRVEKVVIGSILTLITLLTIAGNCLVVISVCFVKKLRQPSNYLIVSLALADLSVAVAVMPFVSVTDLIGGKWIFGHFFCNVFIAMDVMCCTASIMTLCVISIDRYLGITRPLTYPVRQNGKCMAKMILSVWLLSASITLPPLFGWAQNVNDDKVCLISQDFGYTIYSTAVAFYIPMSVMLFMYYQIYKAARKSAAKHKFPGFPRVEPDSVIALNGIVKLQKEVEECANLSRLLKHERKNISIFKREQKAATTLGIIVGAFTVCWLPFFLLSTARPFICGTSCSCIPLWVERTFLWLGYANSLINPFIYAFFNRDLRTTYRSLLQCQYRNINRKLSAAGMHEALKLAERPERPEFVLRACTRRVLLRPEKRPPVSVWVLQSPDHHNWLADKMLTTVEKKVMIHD
Excerpt: It is certain that the C(5) substituent impacts function. […] In FIG. 3, results of measured (S)-5-PAT scaffold yields with various function as 5HT7 ligands are compared with AS-19 and clozapine.

[7] = test system: BL/6J mice; experiment: Serotonin syndrome-like behavior observation; assay type: in vivo, mouse
[8] = target: T1, 5HT2A receptors; experiment: 5-HT2A function in HEK cells over-expressing the receptor; assay type: cell-based
[9] = target: T2, 5HT2B receptors; experiment: 5HT2B functional assays; assay type: cell-based
[10] = mouse, brain, read-out: Brain concentration
[11] = mouse, plasma, read-out: Plasma concentration
[12] = mouse, in vivo, listed as (2S)-5-FPT, HCl

CN(C)[C@H]1CCc2c(cccc2-c2ccccc2F)C1.Cl [(S)-5-FPT, (2S)-5-(2-fluorophenyl)-N,N-dimethyl-1,2,3,4-tetrahydronaphthalen-2-amine HCl]
Hyperlocomotion caused by AMP [1]: did not reduce hyperlocomotion caused by AMP; also recorded: did not significantly decrease hyperlocomotion elicited by amphetamine | concentration at 30 min [2, 10]: 1780 ng/g | concentration at 60 min [2, 10]: 2160 ng/g | concentration at 90 min [2, 10]: 1460 ng/g | Blood-brain barrier penetration ([2]; mouse, in vivo): readily crosses the blood-brain barrier | concentration at 30 min [2, 11]: 114 ng/mL | concentration at 60 min [2, 11]: 118 ng/mL | concentration at 90 min [2, 11]: 70 ng/mL | Peripheral clearance ([2]; plasma levels lower than brain): rapidly cleared in the periphery | Ki [3]: ~900 nM | Ki [4]: 60 nM | DOI HTR at 3 hours post-administration ([5]; 5.6 mg/kg, 3 hours post-administration): did not block the DOI HTR | Time for which attenuation of the DOI HTR remained significant ([5]; 5.6 mg/kg, post-administration): up to 2 hours | DOI-elicited HTR [5, 12]: dose-dependently attenuated the DOI-elicited HTR; also recorded: significantly attenuated | Oral activity ([5]; oral administration): orally active | EC50 [6]: 34 nM | EMAX vs AS-19, 5-HT7 Gs-cAMP signaling [6]: 33% | Function at 5HT7 [6]: Partial agonist | Function at 5HT7 ([6]; listed as (2S)—S-FPT): partial agonist | Flat Body ([7]; 5.6 mg/kg, mean (SEM) number of six one-minute sessions with the behavior (score/6)): 0(0) | Forepaw Tread ([7]; 5.6 mg/kg, mean (SEM) score/6): 0(0) | Head Weave ([7]; 5.6 mg/kg, mean (SEM) score/6): 0(0) | Moon Walk ([7]; 5.6 mg/kg, mean (SEM) score/6): 0.3(0.2) | Piloerection ([7]; 5.6 mg/kg, mean (SEM) score/6): 0(0) | Straub Tail ([7]; 5.6 mg/kg, mean (SEM) score/6): 0(0) | Tremor ([7]; 5.6 mg/kg, mean (SEM) score/6): 0(0) | Serotonin syndrome [7, 12]: did not result in symptoms of serotonin syndrome; also recorded: does not produce serotonin syndrome-like symptoms | Function at 5-HT2A receptors [8]: weak partial agonist activity | 5HT2B functional activity [9]: devoid of 5HT2B activity up to 100 μM
